Laboratory results reported in US10975068B2, “6-aminopyridin-3-yl thiazoles as modulators of RORγT” (Janssen Pharmaceutica NV, priority 2016, dated 2021).
pIC50, pKd: −log10 of the molar value. Like-named read-outs stand apart in the source and are kept apart here. Marks after values point to notes of the source that are not given here.

Columns and labels:
[1] = molecular target: human RORγt ligand binding domain (RORγt LBD) (Homo sapiens (Human), UniProt P51449); assay: RORγt ThermoFluor® assay (thermal shift binding); conditions: read-out: ThermoFluor® Assay, Kd
Chain of human RORγt ligand binding domain (RORγt LBD) (P51449 other isoform, or with tags, fused parts or gaps): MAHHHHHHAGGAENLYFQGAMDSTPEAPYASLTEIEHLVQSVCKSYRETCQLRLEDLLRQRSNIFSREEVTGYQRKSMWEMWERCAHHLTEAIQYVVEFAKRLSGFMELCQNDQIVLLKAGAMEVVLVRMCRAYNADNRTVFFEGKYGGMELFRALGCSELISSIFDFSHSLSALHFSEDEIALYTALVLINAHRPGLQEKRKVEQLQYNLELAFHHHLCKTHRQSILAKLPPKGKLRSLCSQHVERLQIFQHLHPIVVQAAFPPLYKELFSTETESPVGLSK
Method in brief: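 Binding was inferred from thermal stabilisation (ΔTm) of the E. coli-expressed RORγt LBD (0.065 mg/mL), monitored by 1,8-ANS (60 μM) emission at 500 nm during a 1 °C/min ramp. Buffer was Hepes 100 mM pH 7.0 with NaCl, GSH and Tween-20.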

full-length human RORγt = full-length human RORγt (Homo sapiens (Human), UniProt P51449); assay: RORγt (full-length human) reporter assay, Conditions B or C; assay type: cell-based; conditions: for pIC50: read-out: RORγt (FL) Reporter Assay B or C, IC50; for RORγt (FL) Reporter Assay B or C, % inhibition (value marked *): marked *: footnote not given; for IC50: RORγt (FL) Reporter Assay B or C, IC50 (μM)
Chain of full-length human RORγt (P51449 other isoform, or with tags, fused parts or gaps): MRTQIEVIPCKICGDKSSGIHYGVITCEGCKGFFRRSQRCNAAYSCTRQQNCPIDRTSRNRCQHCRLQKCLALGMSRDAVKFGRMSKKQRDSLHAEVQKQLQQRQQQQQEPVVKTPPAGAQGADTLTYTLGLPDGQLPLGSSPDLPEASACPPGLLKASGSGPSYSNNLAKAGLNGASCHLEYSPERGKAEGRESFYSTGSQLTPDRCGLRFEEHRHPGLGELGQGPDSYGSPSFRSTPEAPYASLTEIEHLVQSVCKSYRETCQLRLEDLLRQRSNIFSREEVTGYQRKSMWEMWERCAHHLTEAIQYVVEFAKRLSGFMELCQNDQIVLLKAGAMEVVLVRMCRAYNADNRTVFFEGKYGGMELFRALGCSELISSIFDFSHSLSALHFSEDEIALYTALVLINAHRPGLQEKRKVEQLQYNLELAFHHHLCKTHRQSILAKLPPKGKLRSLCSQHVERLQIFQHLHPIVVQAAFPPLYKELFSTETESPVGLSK
Method in brief: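 Readout is dual luciferase: firefly (GAL4-driven) normalized to DMSO-only and saturating-reference controls, then to CMV-Renilla. Full-length human RORγt fused to GAL4-DBD was transiently expressed in HEK293T; compound exposure ran overnight (16-20 h) starting 4-6 h after transfection, final FBS 1.3%, DMSO 0.1%.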

[2] = at 3 μM compound concentration, read-out: RORγt (FL) Reporter Assay B or C, % inhibition

| SMILES | pKd [1] | pIC50 (full-length human RORγt) | RORγt (FL) Reporter Assay B or C, % inhibition (value marked *) (full-length human RORγt; Conditions B or C) | pIC50 (full-length human RORγt; Conditions B or C) | also measured |
| --- | --- | --- | --- | --- | --- |
| C[C@H](Nc1cc(C(F)(F)F)c(-c2sc(C(=O)NCC(C)(C)O)nc2C(=O)N2C3CCC2CC3)cn1)C(F)(F)F [Example 82, 4-((1s,4s)-7-Azabicyclo[2.2.1]heptane-7-carbonyl)-N-(2-hydroxy-2-methylpropyl)-5-(4-(trifluoromethyl)-6-(((S)-1,1,1-trifluoropropan-2-yl)amino)pyridin-3-yl)thiazole-2-carboxamide] | 8.32 | – | 117* % | – | IC50 (full-length human RORγt; Conditions B or C): 0.079 µM |
| C[C@H]1CC(F)(F)CN1C(=O)c1nc(C(=O)NCC(C)(C)O)sc1-c1cnc(NC(C)(C)C2CC2)cc1C(F)F [Example 106, (S)-5-(6-((2-Cyclopropylpropan-2-yl)amino)-4-(difluoromethyl)pyridin-3-yl)-4-(4,4-difluoro-2-methylpyrrolidine-1-carbonyl)-N-(2-hydroxy-2-methylpropyl)thiazole-2-carboxamide] | 9.10 | – | 117* % | 7.66 | – |
| C[C@H](Nc1cc(C(F)F)c(-c2sc(C(=O)N[C@H](C)C(C)(C)O)nc2C(=O)N2C3CCC2CC3)cn1)C(F)(F)F [Example 445, 4-((1s,4s)-7-Azabicyclo[2.2.1]heptane-7-carbonyl)-5-[4-(difluoromethyl)-6-[[(1S)-2,2,2-trifluoro-1-methyl-ethyl]amino]-3-pyridyl]-N-[(1R)-2-hydroxy-1,2-dimethyl-propyl]thiazole-2-carboxamide] | 7.92 | 7.02 | – | – | inhibition at 3 µM (full-length human RORγt; [2]): 73% |
| CC[C@H](Nc1cc(C(F)F)c(-c2sc(C(=O)NC3CCS(=O)(=O)CC3)nc2C(=O)N2CCC[C@@H]2C)cn1)C(F)(F)F [Example 232, 5-(4-(Difluoromethyl)-6-(((S)-1,1,1-trifluorobutan-2-yl)amino)pyridin-3-yl)-N-(1,1-dioxidotetrahydro-2H-thiopyran-4-yl)-4-((S)-2-methylpyrrolidine-1-carbonyl)thiazole-2-carboxamide] | 8.47 | – | 122* % | 7.16 | – |
| C[C@H](Nc1cc(C(F)F)c(-c2sc(C(=O)N[C@@H]3CCC[C@H]3O)nc2C(=O)N2C3CCC2CC3)cn1)C(F)(F)F [Example 224, 4-((1s,4s)-7-Azabicyclo[2.2.1]heptane-7-carbonyl)-5-(4-(difluoromethyl)-6-(((1S)-2,2,2-trifluoro-1-methyl-ethyl)amino)-3-pyridyl)-N-((1R,2R)-2-hydroxycyclopentyl)thiazole-2-carboxamide] | 8.57 | – | 112* % | – | IC50 (full-length human RORγt; Conditions B or C): 0.026 µM |
| C[C@H]1CCCCN1C(=O)c1nc(C(=O)NCC(C)(C)O)sc1-c1cnc(NCC(C)(C)C)cc1C(F)F [Example 114, (S)-5-(4-(Difluoromethyl)-6-(neopentylamino)pyridin-3-yl)-N-(2-hydroxy-2-methylpropyl)-4-(2-methylpiperidine-1-carbonyl)thiazole-2-carboxamide] | 9.31 | – | 117* % | 8.01 | – |
| CC(C)(O)CNC(=O)c1nc(C(=O)N2C3CCC2CC3)c(-c2cnc(NC(C3CC3)C3CC3)cc2C(F)(F)F)s1 [Example 137, 4-((1s,4s)-7-Azabicyclo[2.2.1]heptane-7-carbonyl)-5-(6-((dicyclopropylmethyl)amino)-4-(trifluoromethyl)pyridin-3-yl)-N-(2-hydroxy-2-methypropyl)thiazole-2-carboxamide] | 8.96 | – | 97* % | 7.92 | – |
| C[C@H](Nc1cc(C(F)F)c(-c2sc(C(=O)N[C@@H]3CC[C@@H](O)C3)nc2C(=O)N2C3CCC2CC3)cn1)C(F)(F)F [Example 438, 4-((1s,4s)-7-Azabicyclo[2.2.1]heptane-7-carbonyl)-5-[4-(difluoromethyl)-6-[[(1S)-2,2,2-trifluoro-1-methyl-ethyl]amino]-3-pyridyl]-N-[(1R,3R)-3-hydroxycyclopentyl]thiazole-2-carboxamide] | 8.40 | 7.08 | – | – | inhibition at 1 µM (full-length human RORγt; at 1 μM compound concentration, read-out: RORγt (FL) Reporter Assay B or C, % inhibition): 99% |
| C[C@@H](Nc1cc(C(F)(F)F)c(-c2sc(C(=O)NCC(C)(C)O)nc2C(=O)N2C3CCC2CC3)cn1)C1CCC1 (stereo in doubt) [Example 172, 4-((1s,4s)-7-Azabicyclo[2.2[1]heptane-7-carbonyl)-5-(6-(((R*)-1-cyclobutylethyl)amino)-4-(trifluoromethyl)pyridine-3-yl)-N-(2-hydroxy-2-methylpropyl)thiazole-2-carboxamide] | 8.92 | – | 102* % | 7.41 | – |

Now from value to molecule, other results behind:

| pKd [1] | pIC50 (full-length human RORγt) | RORγt (FL) Reporter Assay B or C, % inhibition (value marked *) (full-length human RORγt; Conditions B or C) | pIC50 (full-length human RORγt; Conditions B or C) | SMILES | also measured |
| --- | --- | --- | --- | --- | --- |
| 7.68 | 7.14 | – | – | C[C@H]1CCCN1C(=O)c1nc(C(=O)N[C@H]2C[C@@H](O)C2)sc1-c1cnc(NC(C)(C)C)cc1C(F)(F)F [Example 251, 5-[6-(tert-Butylamino)-4-(trifluoromethyl)-3-pyridyl]-N-((1s,3R)-3-hydroxycyclobutyl)-4-[(2S)-2-methylpyrrolidine-1-carbonyl]thiazole-2-carboxamide] | inhibition at 3 µM (full-length human RORγt; [2]): 104% |
| 8.96 | 8.12 | – | – | C[C@H]1CCCN1C(=O)c1nc(C(=O)NCC(C)(O)C(F)(F)F)sc1-c1cnc(NC(C)(C)C)cc1C(F)(F)F (single isomer, unassigned) [Example 359, 5-(6-(tert-Butylamino)-4-(trifluoromethyl)pyridin-3-yl)-4-((S)-2-methylpyrrolidine-1-carbonyl)-N—((R*)-3,3,3-trifluoro-2-hydroxy-2-methylpropyl)thiazole-2-carboxamide] | RORγt (FL) Reporter Assay B or C, % inhibition (full-length human RORγt; at 3 μM compound concentration): 125* % |
| 7.02 | 6.59 | – | – | C[C@H]1CCCN1C(=O)c1nc(C(N)=O)sc1-c1cnc(NC(C)(C)C)cc1C(F)(F)F [Example 308, (S)-5-(6-(tert-Butylamino)-4-(trifluoromethyl)pyridin-3-yl)-4-(2-methylpyrrolidine-1-carbonyl)thiazole-2-carboxamide] | inhibition at 3 µM (full-length human RORγt; [2]): 107% |
| 8.80 | – | 98* % | 7.59 | CC[C@H](Nc1cc(C(F)F)c(-c2sc(C(=O)N[C@H](C)C(C)(C)O)nc2C(=O)N2CC(F)(F)C[C@@H]2C)cn1)C(F)(F)F [Example 245, 4-[(2S)-4,4-Difluoro-2-methyl-pyrrolidine-1-carbonyl]-5-[4-(difluoromethyl)-6-[[(1S)-1-(trifluoromethyl)propyl]amino]-3-pyridyl]-N-[(1R)-2-hydroxy-1,2-dimethyl-propyl]thiazole-2-carboxamide] | – |
| 9.30 | 8.15 | – | – | C[C@H]1CCCN1C(=O)c1nc(C(=O)NCC(C)(C)O)sc1-c1cnc(NC(C)(C)CC(F)(F)F)cc1C(F)F [Example 296] | inhibition at 3 µM (full-length human RORγt; [2]): 108% |
| 8.59 | – | – | 7.72 | CC[C@@H](Nc1cc(C(F)F)c(-c2sc(C(=O)N[C@H]3COC[C@@H]3O)nc2C(=O)N2CCC[C@@H]2C)cn1)C(F)(F)F [Example 207, 5-(4-(Difluoromethyl)-6-(((1R)-1-(trifluoromethyl)propyl)amino)-3-pyridyl)-N-((3S,4R)-4-hydroxytetrahydrofuran-3-yl)-4-((2S)-2-methylpyrrolidine-1-carbonyl)thiazole-2-carboxamide] | RORγt (FL) Reporter Assay B or C, % inhibition (value marked ***) (full-length human RORγt; Conditions B or C, marked ***: footnote not given): 103*** % |
| 8.51 | – | 98* % | 7.40 | CC[C@H](Nc1cc(C(F)F)c(-c2sc(C(=O)N[C@H]3COC[C@H]3O)nc2C(=O)N2CCC[C@@H]2C)cn1)C(F)(F)F (single isomer, unassigned) [Example 165, 5-(4-(Difluoromethyl)-6-(((S)-1,1,1-trifluorobutan-2-yl)amino)pyridin-3-yl)-N-((3S*,4S*)-4-hydroxytetrahydrofuran-3-yl)-4-((S)-2-methylpyrrolidine-1-carbonyl)thiazole-2-carboxamide] | – |
| 8.30 | 7.15 | – | – | CC[C@H](Nc1cc(C(F)F)c(-c2sc(C(=O)N3CC4(COC4)C3)nc2C(=O)N2CCC[C@@H]2C)cn1)C(F)(F)F [Example 384, [5-[4-(Difluoromethyl)-6-[[(1S)-1-(trifluoromethyl)propyl]amino]-3-pyridyl]-2-(6-oxa-2-azaspiro[3.3]heptane-2-carbonyl)thiazol-4-yl]-[(2S)-2-methylpyrrolidin-1-yl]methanone] | inhibition at 3 µM (full-length human RORγt; [2]): 98% |
| 9.64 | – | 101* % | 7.82 | C[C@H]1CC(F)(F)CN1C(=O)c1nc(C(=O)NC2COCC2O)sc1-c1cnc(NC2(C)CCC2)cc1C(F)(F)F (stereo in doubt) [Example 185, 4-((S)-4,4-Difluoro-2-methylpyrrolidine-1-carbonyl)-N-((3S,4R)-4-hydroxytetrahydrofuran-3-yl)-5-(6-((1-methylcyclobutyl)amino)-4-(trifluoromethyl)pyridine-3-yl)thiazole-2-carboxamide] | – |
| 8.89 | 7.96 | – | – | C[C@H]1CCCN1C(=O)c1nc(C(=O)N[C@@H]2CC[C@@H](O)C2)sc1-c1cnc(NC(C)(C)C)cc1C(F)F [Example 432, 5-[6-(tert-Butylamino)-4-(difluoromethyl)-3-pyridyl]-N-[(1R,3R)-3-hydroxycyclopentyl]-4-[(2S)-2-methylpyrrolidine-1-carbonyl]thiazole-2-carboxamide] | inhibition at 0.33 µM (full-length human RORγt; at 0.33 μM compound concentration, read-out: RORγt (FL) Reporter Assay B or C, % inhibition): 122% |
